# From patent US20090238852A1, “METHODS FOR CONTROLLING INTRACELLULAR CALCIUM LEVELS ASSOCIATED WITH AN ISCHEMIC EVENT” (University of Utah Research Foundation, priority 2008, published 2009)
# Tested on: pigs, 75 min LAD balloon occlusion and 3 h reperfusion
# Assay: Closed chest porcine model of cardiac ischemia/reperfusion: infarct size (NEC/AAR)
# Assay type: in vivo, pig
# Settings: repeated at 90 min reperfusion
# Text: To study the utility of 2-O, 3-O desulfated heparin (ODSH) in reducing ischemic tissue injury from injurious Ca^++ overload, a closed chest porcine model of cardiac ischemia was used. The study was designed to determine if previous findings indicating the protective effect of ODSH in reducing myocardial infarction reperfusion injury in open chest dogs were reproducible in an animal model of ischemia/reperfusion injury more relevant to humans. […] Yorkshire-cross pigs (Palmetto Research Swine, Reevesville, S.C.) of either sex, weighing 25-35 kg, were used for the experiment was employed. Animals were premedicated with an intramuscular injection of ketamine (30 mg/kg), acepromazine (1.1 mg/kg), and atropine (0.05 mg/kg). Pigs were induced with an IV injection of thiopental (10 mg/kg) and maintained with continuous inhalation of isoflurane (1-1.5%). Aspirin (81 mg) was administered by IV prior to the experiment.
# Arterial access was achieved via bilateral femoral artery cut-downs for the insertion of 8F sheaths. Central venous and carotid access was achieved via a neck incision to expose the external jugular vein and common carotid artery. […] Baseline cardiodynamic and hemodynamic data were measured using a solid state transducer-tipped catheter in the left ventricle (Millar Instruments, Houston, Tex.) to measure left ventricular pressure, and a fluid-filled transducer connected to the side port of the femoral artery sheath to measure peripheral arterial pressure. Approximately 3-4 million neutron-activated microspheres (BioPhysics Assay Laboratory, Inc, Worcester, Ma) (15 μm) were delivered through a pig-tail catheter into the left ventricle over a 30 second period, to quantify regional myocardial blood flow (RMBF). […] Balloon occlusion time was 75 minutes with coronary occlusion confirmed by contrast angiography, ST segment changes on electrocardiography, and quantitatively confirmed by microspheres delivered at the end of ischemia, as described above. […]
substance,measurement,setting,value
"2-O, 3-O desulfated heparin [ODSH]",infarct size (NEC/AAR) compared to control,ODSH 5 mg/kg IV bolus 2 min before balloon deflation,No significant reduction in infarct size
same,infarct size (NEC/AAR) relative to control,ODSH 15 mg/kg IV bolus 2 min before balloon deflation,significant infarct size reduction
same,infarct size (NEC/AAR) relative to control,ODSH 45 mg/kg IV bolus 2 min before balloon deflation,significant infarct size reduction
